From US6787315B2, “Methods for identifying ligand binding sites in a biomolecule” (priority 2001, dated 2004)

Legend:
[1] = tested on: modified 16S RNA (5′-PS-A1492; 3′-phosphorothioate at A1492, C12O6 PEG mass tag); test: ESI-FT-ICR MS ligand binding to 27-mer 16S RNA modified at A1492; set-up: species or system E. coli
Experimental: (§1) The following examples illustrate preferred embodiments of the present invention using mass spectrometry. Experiments were performed using a 7.0 Tesla Fourier transform ion cyclotron resonance (FT-ICR) mass spectrometer with an electrospray ionization source operating in the negative mode. A −3000 V difference was employed between the spray tip and the inlet capillary to generate the electrospray. Samples were introduced at a flow rate of 1.5 uL/min using a Harvard syringe pump and a 50 uL glass syringe. The desolvation of the electrospray droplets was aided by a flow of countercurrent gas at 1 L/min. Ions were accumulated for 1.0 sec in an intermediate hexapole ion storage region at 1.0×10^−5 mbar. Following transfer to the FT-ICR analysis cell, the image current was measured over a mass range of 500-4000 m/z. Typically, a total of 32 transients containing 512 kbytes were summed prior to Fourier transformation. The m/z values were calibrated on the signal from the [M-5H^+]^5− charge state of the free RNA at 1726.509.
An aqueous solution containing 100 mM ammonium acetate buffer (pH 7.0), 33% isopropyl alcohol, gentamicin (1 μM), 16S RNA (5 μM) and a modified 16S RNA (5.5 μM) was prepared. […] The peaks from the complexes formed from the lowest mass form of gentamicin were integrated and ion abundances determined. Fractions of 16S+genta and 5′-PS-A1492+genta complexes were determined to be 0.121 and 0.118±0.01% for the free 16S RNA and 5′-PS-A1492 RNA, respectively.
An aqueous solution containing 100 mM ammonium acetate buffer (pH 7.0), 33% isopropyl alcohol, ribostamycin (1 μM), 16S RNA (5 μM) and a modified 16S RNA (5.5 μM) was prepared. […] The peaks from the complexes formed between ribostamycin and the RNA were integrated and ion abundances determined. Fractions of 16S+ribost and 5′-PS-A1492+ribost complexes were determined to be 0.101 and 0.082±0.005% for the free 16S RNA and 5′-PS-A1492 RNA, respectively.

[2] = tested on: modified 16S RNA (5′-PS-G1491; 3′-phosphorothioate at G1491, C12O6 PEG mass tag); test: ESI-FT-ICR MS ligand binding to 27-mer 16S RNA modified at G1491; set-up: species or system E. coli
Experimental: as §1
An aqueous solution containing 100 mM ammonium acetate buffer (pH 7.0), 33% isopropyl alcohol, gentamicin (1 μM), 16S RNA (5 μM) and a modified 16S RNA (5.5 μM) was prepared. Modified 27-mer 16S RNA contained a 3′-phosphorothioate residue at position G1491 at the position of a G-C base pair (E. coli numbering system) and a C12O6 PEG mass tag off the 5′-hydroxyl group. Mass spectra were obtained using the standard protocol described above. The resulting mass spectra contained identifiable peaks corresponding to free 16S RNA (m/z 1726.5), free modified 16S RNA(5′-PS-G1491; m/z 1779.3), 16S complexed with the three forms of gentamicin present in the sample (16S+genta; m/z 1816-1825), and 16S(5′-PS-G1491) complexed with the three forms of gentamicin (5′-PS-G1491+genta; m/z 1869-1875). The peaks from the complexes formed from the lowest mass form of gentamicin were integrated and ion abundances determined. Fractions of 16S+genta and 5′-PS-G1491+genta complexes were determined to be 0.127 and 0.140±0.01% for the free 16S RNA and 5′-PS-G1491 RNA, respectively.
An aqueous solution containing 100 mM ammonium acetate buffer (pH 7.0), 33% isopropyl alcohol, ribostamycin (1 μM), 16S RNA (5 μM) and a modified 16S RNA (5.5 uM) was prepared. Modified 27 mer 16S RNA contained a 3′-phosphorothioate residue at position G1491 at the position of a G-C base pair (E. coli numbering system) and a C12O6 PEG mass tag off the 5′-hydroxyl group. […] The peaks from the complexes formed between ribostamycin and the RNA were integrated and ion abundances determined. Fractions of 16S+ribost and 5′-PS-G1491+ribost complexes were determined to be 0.105 and 0.100±0.005% for the free 16S RNA and 5′-PS-G1491 RNA, respectively.

Row | Molecule | Amount of 5′-PS-A1492+ribost as % of the amount of 16S+ribost ([1]; Example 7: ribostamycin 1 μM) [%] | Amount of 5′-PS-G1491+ribost as % of the amount of 16S+ribost ([2]; Example 5: ribostamycin 1 μM) [%] | Fraction of 5′-PS-G1491+ribost complex ([2]; Example 5: ribostamycin 1 μM, 16S RNA 5 μM with 5′-PS-G1491 RNA 5.5 uM, 100 mM ammonium acetate pH 7.0, 33% isopropyl alcohol) [%] | Amount of 5′-PS-A1492+genta as % of the amount of 16S+genta ([1]; Example 6: gentamicin 1 μM) [%] | Fraction of 5′-PS-A1492+genta complex ([1]; Example 6: gentamicin 1 μM (lowest mass form integrated), 16S RNA 5 μM with 5′-PS-A1492 RNA 5.5 μM, 100 mM ammonium acetate pH 7.0, 33% isopropyl alcohol) | Amount of 5′-PS-G1491+genta as % of the amount of 16S+genta ([2]; Example 4: gentamicin 1 μM) [%] | Fraction of 5′-PS-G1491+genta complex ([2]; Example 4: gentamicin 1 μM (lowest mass form integrated), 16S RNA 5 μM with 5′-PS-G1491 RNA 5.5 μM, 100 mM ammonium acetate pH 7.0, 33% isopropyl alcohol)
1 | NC[C@H]1O[C@H](O[C@H]2[C@H](O[C@@H]3O[C@H](CO)[C@@H](O)[C@H]3O)[C@@H](O)[C@H](N)C[C@@H]2N)[C@H](N)[C@@H](O)[C@@H]1O [ribostamycin] | 80 | 94 | 0.100±0.005 | – | – | – | –
2 | gentamicin | – | – | – | 97 | 0.118±0.01 fraction (0–1) | 110 | 0.140±0.01 fraction (unitless)
